Experimental data: patent EP0565593B1, “REDUCING PESTICIDAL INTERACTIONS IN CROPS” (priority 1990, dated 1992)
Where two headings read alike, the source gives them in different places.

Experiments:
[1] = tested on: Velvetleaf (VELE); assay: whole plant or invertebrate; type: in vivo, Abutilon theophrasti
[2] = tested on: Shattercane (SHCA); type: in vivo; details: […]
[3] = tested on: Velvetleaf (VELE); type: in vivo, Abutilon theophrasti; details: […]
[4] = tested on: Corn
[5] = tested on: Corn; details: […]
[6] = tested on: Giant foxtail (GIFT); assay: whole plant or invertebrate; type: in vivo
[7] = […], PPI, 14 days after PPI (Table 34)
[8] = observed 8 days later (Table 32)
[9] = observed 8 days later (Table 33)
[10] = […], PPI, 13 days after PPI (Table 31)
[11] = observed 9 days later (Table 29)
[12] = observed 9 days later (Table 30)
[13] = […], antidote number given but rate '-', 14 days after PPI (Table 34)
[14] = antidote number given but rate '-' (Table 33)
[15] = observed 7 days after POE (Table 35)
[16] = observed 7 days after POE (Table 36)

Compound: CCOC(=O)CNC(c1ccc(Cl)cc1)c1ccc(Cl)cc1 [compound 44]
- % Inhibition VELE [1, 7]: 95%
- % Inhibition SHCA [2, 8]: 80%
- % Inhibition SHCA [2, 9]: 30%
- % Inhibition VELE [3, 8]: 85%
- % Inhibition VELE [3, 9]: 65%
- % Inhibition Corn [4, 7]: 75%
- % Inhibition Corn [5, 8]: 65%
- % Inhibition Corn [5, 9]: 60%
- % Inhibition GIFT [6, 7]: 65%

Compound: Cn1cccc1C1CN(C(=O)C(Cl)Cl)C(C)(C)O1 (stereo not drawn) [compound 35]
- % Inhibition VELE [1, 10]: 80%
- % Inhibition SHCA [2, 11]: 75%
- % Inhibition SHCA [2, 12]: 30%
- % Inhibition VELE [3, 11]: 90%
- % Inhibition VELE [3, 12]: 65%
- % Inhibition Corn [4, 10]: 40%
- % Inhibition Corn [5, 11]: 20%
- % Inhibition Corn [5, 12]: 35%
- % Inhibition GIFT [6, 10]: 70%

Compound: CC1(C)OC(c2cc3ccccc3o2)CN1C(=O)C(Cl)Cl (stereo not drawn) [compound 38]
- % Inhibition VELE [1, 10]: 85%
- % Inhibition SHCA [2, 11]: 80%
- % Inhibition SHCA [2, 12]: 25%
- % Inhibition VELE [3, 11]: 95%
- % Inhibition VELE [3, 12]: 70%
- % Inhibition Corn [4, 10]: 50%
- % Inhibition Corn [5, 11]: 20%
- % Inhibition Corn [5, 12]: 45%
- % Inhibition GIFT [6, 10]: 70%

Compound: CCCOC(=O)COC(c1ccccc1)c1ccccc1 [compound 47]
- % Inhibition VELE [1, 7]: 85%
- % Inhibition SHCA [2, 8]: 75%
- % Inhibition SHCA [2, 9]: 30%
- % Inhibition VELE [3, 8]: 85%
- % Inhibition VELE [3, 9]: 75%
- % Inhibition Corn [4, 7]: 60%
- % Inhibition Corn [5, 8]: 25%
- % Inhibition Corn [5, 9]: 50%
- % Inhibition GIFT [6, 7]: 65%

Compound: CCOC(=O)CNC(c1ccc(OC)cc1)c1ccc(OC)cc1 [compound 43]
- % Inhibition VELE [1, 7]: 90%
- % Inhibition SHCA [2, 8]: 65%
- % Inhibition SHCA [2, 9]: 35%
- % Inhibition VELE [3, 8]: 85%
- % Inhibition VELE [3, 9]: 75%
- % Inhibition Corn [4, 7]: 80%
- % Inhibition Corn [5, 8]: 55%
- % Inhibition Corn [5, 9]: 65%
- % Inhibition GIFT [6, 7]: 70%

Compound: CC(C)(C#N)OC(=O)COC(c1ccccc1)c1ccccc1 [compound 59]
- % Inhibition VELE [1, 13]: 20%
- % Inhibition SHCA [2, 14]: 0%
- % Inhibition SHCA [2, 8]: 80%
- % Inhibition VELE [3, 14]: 0%
- % Inhibition VELE [3, 8]: 85%
- % Inhibition Corn [4, 13]: 0%
- % Inhibition Corn [5, 14]: 0%
- % Inhibition Corn [5, 8]: 15%
- % Inhibition GIFT [6, 13]: 30%

Compound: O=C(O)c1sc(Cl)nc1C(F)(F)F [compound 68]
- % Inhibition VELE ([1]; in vivo): 80%
- % Inhibition SHCA [2, 15]: 70%
- % Inhibition SHCA [2, 16]: 45%
- % Inhibition VELE [3, 15]: 85%
- % Inhibition VELE [3, 16]: 60%
- % Inhibition Corn ([4]; in vivo): 45%
- % Inhibition Corn [5, 15]: 25%
- % Inhibition Corn [5, 16]: 65%
- % Inhibition GIFT ([6]; in vivo): 65%

Compound: N#CCCOC(=O)COC(c1ccccc1)c1ccccc1 [compound 52]
- % Inhibition VELE [1, 7]: 85%
- % Inhibition SHCA [2, 8]: 70%
- % Inhibition SHCA [2, 9]: 25%
- % Inhibition VELE [3, 8]: 85%
- % Inhibition VELE [3, 9]: 75%
- % Inhibition Corn [4, 7]: 40%
- % Inhibition Corn [5, 8]: 20%
- % Inhibition Corn [5, 9]: 45%
- % Inhibition GIFT [6, 7]: 65%

Compound: CC1Cc2ccccc2C(C)N1C(=O)C(Cl)Cl (stereo not drawn) [compound 26]
- % Inhibition VELE [1, 10]: 80%
- % Inhibition SHCA [2, 11]: 70%
- % Inhibition SHCA [2, 12]: 35%
- % Inhibition VELE [3, 11]: 90%
- % Inhibition VELE [3, 12]: 75%
- % Inhibition Corn [4, 10]: 65%
- % Inhibition Corn [5, 11]: 40%
- % Inhibition Corn [5, 12]: 50%
- % Inhibition GIFT [6, 10]: 75%

Compound: CCCCOC(=O)c1sc(Cl)nc1C(F)(F)F [compound 61]
- % Inhibition VELE ([1]; in vivo): 90%
- % Inhibition SHCA [2, 15]: 65%
- % Inhibition SHCA [2, 16]: 35%
- % Inhibition VELE [3, 15]: 75%
- % Inhibition VELE [3, 16]: 65%
- % Inhibition Corn ([4]; in vivo): 60%
- % Inhibition Corn [5, 15]: 35%
- % Inhibition Corn [5, 16]: 55%
- % Inhibition GIFT ([6]; in vivo): 70%

Compound: [O-][n+]1ccccc1Sc1nc(Cl)c(Cl)c(Cl)c1Cl [compound 70]
- % Inhibition VELE ([1]; in vivo): 95%
- % Inhibition SHCA [2, 15]: 70%
- % Inhibition SHCA [2, 16]: 25%
- % Inhibition VELE [3, 15]: 90%
- % Inhibition VELE [3, 16]: 85%
- % Inhibition Corn ([4]; in vivo): 75%
- % Inhibition Corn [5, 15]: 70%
- % Inhibition Corn [5, 16]: 65%
- % Inhibition GIFT ([6]; in vivo): 70%
